Consider 31 molecules from US20190135787A1, “PYRIMIDINE COMPOSITIONS, ULTRA-PURE COMPOSITIONS AND SALTS THEREOF, METHODS OF MAKING THE SAME, AND METHODS OF USING THE SAME FOR TREATING HISTAMINE H4 RECEPTOR (H4) MEDIATED DISEASES AND CONDITIONS” (Novartis AG, priority 2015, published 2019).

The nature of series [1]: Salt screen: physical stability under accelerated aging conditions (HT-XRPD). Format: physicochemical. The conditions noted are these: 40° C., 75% RH, two days, code+number = crystalline salt form, 0 = crystalline counter ion itself. The method, then:
XRPD patterns were obtained using the Crystallics T2 high-throughput XRPD set-up. The plates were mounted on a Bruker General Area Detector Diffraction System (GADDS) equipped with a VANTEC-500 gas area detector corrected for intensity and geometric variations. The calibration of the measurement accuracy (peaks position) was performed using NIST SRM1976 standard (Corundum).
Data collection was carried out at room temperature using monochromatic CuKα radiation in the 2θ region between 1.5° and 41.5°, which is the most distinctive part of the XRPD pattern. The diffraction pattern of each well was collected in two 20 ranges (1.5°≤2θ≤21.5° for the first frame, and 19.5°≤2θ≤41.5° for the second) with an exposure time of 90s for each frame. No background subtraction or curve smoothing was applied to the XRPD patterns.
Approximately 175 mg of N^4-(cyclopropylmethyl)-6-[(3R)-3-(methylamino)pyrrolidin-1-yl]pyrimidine-2,4-diamine in 1-Butanol and Dichloromethane were combined with a slight molar excess of either solid or liquid counter ion. Samples were incubated at RT. After 5 days the solids were collected, dried under vacuum and analyzed by HT-XRPD (XRPD 1).
Subsequently, the solids were exposed to accelerated aging conditions (40° C., 75% RH) for two days and re-analyzed by HT-XRPD (XRPD 2). Crystalline salts (polymorphs) are indicated with the abbreviated counter ion code and a number (1, 2, etc.). The number zero (0) indicates the crystalline counter ion itself.

The nature of series [2]: Dynamic vapor sorption (DVS). The conditions noted are these: 25° C. The class given is physicochemical. As to the method:
Moisture sorption isotherms were collected on a DVS-1 system from Surface Measurement Systems (London, UK). Typical sample size is between 5 and 10 mg of solid material. The relative humidity was cycled between 40% to 0% (desorption), up to 95% (sorption), back to 0% RH (desorption) and up to 95% RH (sorption) in steps of 10% at a constant temperature of 25° C. with an initial stabilizing step at 40% RH for 6 hours.

In series [3] the test system is adult subjects with moderate to severe atopic dermatitis. Nature of the series: Phase 2a study in moderate to severe atopic dermatitis. Format: in vivo, human. Conditions: 8 weeks. The method, then: Following the phase 1 trials, a phase 2a trial was conducted to evaluate the efficacy of 8 weeks of treatment with 30 mg ZPL-389 administered once daily in adult subject with moderate to severe atopic dermatitis. The study was also designed to assess the safety and tolerability of ZPL-389 in adult subjects with moderate to severe atopic dermatitis.
This study was a randomized, double blind, placebo controlled, parallel group study of subjects having a pruritus Numerical Rating Scale (NRS) of ≥5 (0-10 scale), an Investigator's Global Assessment (IGA)≥3 (0-3 scale), and moderate-severe AD Eczema Area and Severity Index (EAST)≥12 and ≤48 (0-72 scale). In addition, subjective patient reported outcome instruments include: Ziarco Itch Diary (Electronic) Pruritus; 5D Pruritus Scale; Dermatology Life Quality Index (DLQI); and Patient Global Impression of Change (PGIG).
Each subject (aged 18-65 years) had one or more screening visits to confirm suitability to enter the study. 98 subjects with moderate to severe atopic dermatitis were randomized 2:1 to receive orally either 30 mg ZPL-389 or placebo once daily for eight weeks (56 days).
Efficacy endpoints for the trial include the following: • change from baseline in NRS for pruritus (worst itch) over 24 hours; • change from baseline in daytime NRS for pruritus (worst itch); • change from baseline in night time NRS for pruritus (worst itch); • change from baseline in NRS for sleep disturbance; • change from baseline in duration of itching; • change from baseline in verbal rating score for pruritus; • change from baseline in EASI score; • change from baseline in SCORAD score; • IGA score; • amount of rescue medication use; and/or • PGIC.

Series [4] in a line: Phase 1 trials, single and multiple ascending doses. Format: in vivo, human. As to the method:
In phase 1 trials, 62 subjects were treated with ZPL-389.

Series [5] relates to mild asthmatics. Conditions: 36 mg, two single oral doses 12 hours apart; cited from earlier work.

For `O=C(O)C(O)c1ccccc1` (racemic) [DL-Mandelic acid], the “XRPD2: solid form after accelerated aging” value (shortened to “XRPD2: solid form”) in series [1] (solid from 1-butanol) and in series [1] (solid from dichloromethane) was “Amorphous” each time.

For the molecule `CC(=O)Nc1ccc(C(=O)O)cc1` [4-acetamido-Benzoic acid], the “XRPD2: solid form” value in series [1] (solid from 1-butanol) and in series [1] (solid from dichloromethane) was “ABen1 + ABen0” throughout.

For `O=C(O)[C@H](O)[C@@H](O)C(=O)O` [(+)-L-Tartaric acid], the “XRPD2: solid form” value in series [1] (solid from 1-butanol) and in series [1] (solid from dichloromethane) was “Amorphous” in each case.

On to `CC(=O)O` [Acetic acid], for which the “XRPD2: solid form” value in series [1] (solid from 1-butanol) and in series [1] (solid from dichloromethane) was “Amorphous” each time.

`O=C[C@H](O)[C@@H](O)[C@H](O)[C@H](O)C(=O)O` [D-Glucuronic acid]: the “XRPD2: solid form” value in series [1] (solid from 1-butanol) and in series [1] (solid from dichloromethane) was “Amorphous” throughout.

Consider `O=S(=O)(O)CCS(=O)(=O)O` [Ethane-1,2-disulfonic acid], for which the “XRPD2: solid form” value in series [1] (solid from 1-butanol) is recorded as “Eds1 + Eds2”; in series [1] (solid from dichloromethane), “Eds1”.

In turn, `CN[C@@H]1CCN(c2cc(NCC3CC3)nc(N)n2)C1.O.O.O=C(O)C(O)C(O)C(=O)O` [Example 4, N^4-(cyclopropylmethyl)-6-[(3R)-3-(methylamino)pyrrolidin-1-yl]pyrimidine-2,4-diamine tartrate dihydrate] came in with a total mass uptake in series [2] (20-30% RH) of 6.9%. In series [2], the “RH at which the dehydration step occurs during desorption” value is “below 10 % RH”. Further, in series [2] (between 0-20% RH), the “water uptake (mass uptake)” value amounted to 1.9%. Also, the weight result in series [2] (between 30-90% RH) was “remains stable”.

Take `O=C(O)c1cc(O)ccc1O` [Gentisic acid]: the “XRPD2: solid form” value in series [1] (solid from 1-butanol) and in series [1] (solid from dichloromethane) was “Gen2” each time.

For the molecule `O=C(O)[C@H](O)[C@@H](O)[C@H](O)[C@H](O)CO` [Gluconic acid], the “XRPD2: solid form” value in series [1] (solid from 1-butanol) and in series [1] (solid from dichloromethane) was “Amorphous” in each case.

Consider `N[C@@H](CCC(=O)O)C(=O)O` [Glutamic acid], for which the entries for the “XRPD2: solid form” value in series [1] (solid from 1-butanol) and in series [1] (solid from dichloromethane) were “Gltm0” and “Amorphous”, respectively.

With `O=C(O)CCCC(=O)O` [Glutaric acid], the “XRPD2: solid form” value in series [1] (solid from 1-butanol) and in series [1] (solid from dichloromethane) was “Glut1” throughout.

Turning to `O=C(O)CNC(=O)c1ccccc1` [Hippuric acid], the “XRPD2: solid form” value in series [1] (solid from 1-butanol) and in series [1] (solid from dichloromethane) was “Amorphous” in each case.

As for `Br` [Hydrobromic acid], the “XRPD2: solid form” value in series [1] (solid from 1-butanol) and in series [1] (solid from dichloromethane) was “Amorphous” each time.

As for `Cl` [Hydrochloric acid], the “XRPD2: solid form” value in series [1] (solid from 1-butanol) and in series [1] (solid from dichloromethane) was “Amorphous” in each case.

On to `N[C@@H](CC(=O)O)C(=O)O` [L-Aspartic acid], for which the “XRPD2: solid form” value is reported as “Asp0” in series [1] (solid from 1-butanol) and “Amorphous” in series [1] (solid from dichloromethane).

Regarding `CS(=O)(=O)O` [Methanesulfonic acid], the “XRPD2: solid form” value in series [1] (solid from 1-butanol) and in series [1] (solid from dichloromethane) was “Amorphous” throughout.

Take `O=S(=O)(O)c1ccc2ccccc2c1` [Naphtalene-2-sulfonic acid]: the “XRPD2: solid form” value in series [1] (solid from 1-butanol) is “Nap1 + Nap0”; in series [1] (solid from dichloromethane), “Amorphous”.

Turning to `O=P(O)(O)O` [Phosphoric acid], the “XRPD2: solid form” value in series [1] (solid from 1-butanol) is reported as “Pho2 plus”; in series [1] (solid from dichloromethane), “Pho3”.

On to `O=C(O)c1ccccc1O` [Salicylic acid], for which the “XRPD2: solid form” value in series [1] (solid from 1-butanol) is given as “Sal1 plus”; in series [1] (solid from dichloromethane) it was “Amorphous”.

For `CCCCCCCCCCCCCCCCCC(=O)O` [Stearic acid], the “XRPD2: solid form” value in series [1] (solid from 1-butanol) and in series [1] (solid from dichloromethane) was “Ste0 + Ste1” in each case.

In the case of `O=S(=O)(O)O` [Sulfuric acid], the “XRPD2: solid form” value in series [1] (solid from 1-butanol) and in series [1] (solid from dichloromethane) was “Amorphous” each time.

For `CN[C@@H]1CCN(c2cc(NCC3CC3)nc(N)n2)C1` [ZPL-389, N^4-(cyclopropylmethyl)-6-[(3R)-3-(methylamino)pyrrolidin-1-yl]pyrimidine-2,4-diamine], in series [3] (30 mg once daily), the “Treatment Emergent Adverse Events (TEAE) vs placebo” value is given as “no differences” and the “rescue medication use vs placebo” value is listed as “lower”. In addition, the “tolerability / safety profile” value in series [3] (30 mg once daily, comparable to placebo) is listed as “well tolerated”. Also, the pruritus entry in series [3] (30 mg once daily, statistically significant compared to baseline) is reported as “markedly reduced”. Further, the IGA reduction in series [3] (30 mg orally once daily, placebo 25%) worked out at 36%. For the same molecule, in series [4] (phase 1 trials), the “pharmacokinetics, dose dependence” value is “dose-proportional pharmacokinetics”. Also, in series [4] (single doses 0.01-48 mg, 5, 15 and 50 mg once daily for 14 days), the “majority of observed adverse events” value is “mild, transient, and non-dose related”. The tolerability entry in series [4] (single doses 0.01-48 mg, 5, 15 and 50 mg once daily for 14 days, 62 subjects) is given as “safely tolerated”. Also, in series [5], the “efficacy in mild asthma” value was “no efficacy was observed”.

Take (−)-L-Malic acid: the “XRPD2: solid form” value in series [1] (solid from 1-butanol) and in series [1] (solid from dichloromethane) was “Amorphous” in each case.

In the case of Benzenesulfonic acid, the “XRPD2: solid form” value in series [1] (solid from 1-butanol) and in series [1] (solid from dichloromethane) was “Amorphous” throughout.

For Benzoic acid, the “XRPD2: solid form” value in series [1] (solid from 1-butanol) and in series [1] (solid from dichloromethane) was “Ben1 + Ben2 plus” each time.

As to Citric acid, the “XRPD2: solid form” value in series [1] (solid from 1-butanol) and in series [1] (solid from dichloromethane) was “Amorphous” in each case.

With Ethanesulfonic acid, the “XRPD2: solid form” value in series [1] (solid from 1-butanol) and in series [1] (solid from dichloromethane) was “Amorphous” throughout.

For the molecule Fumaric acid, the “XRPD2: solid form” value in series [1] (solid from 1-butanol) is listed as “Amorphous”; in series [1] (solid from dichloromethane), “Fum0 + Fum3”.

Consider Lactic acid, for which the “XRPD2: solid form” value in series [1] (solid from 1-butanol) and in series [1] (solid from dichloromethane) was “Amorphous” throughout.

For the molecule Maleic acid, the “XRPD2: solid form” value in series [1] (solid from 1-butanol) and in series [1] (solid from dichloromethane) was “Amorphous” throughout.

Take Oxalic acid: the “XRPD2: solid form” value in series [1] (solid from 1-butanol) and in series [1] (solid from dichloromethane) was “Oxa3” each time.
